In one experiment the target is T1, Recombinant human HDAC1 (Homo sapiens, UniProt Q13547).
T1 construct: FLAG (C); made in house
T1 sequence (Q13547 whole entry): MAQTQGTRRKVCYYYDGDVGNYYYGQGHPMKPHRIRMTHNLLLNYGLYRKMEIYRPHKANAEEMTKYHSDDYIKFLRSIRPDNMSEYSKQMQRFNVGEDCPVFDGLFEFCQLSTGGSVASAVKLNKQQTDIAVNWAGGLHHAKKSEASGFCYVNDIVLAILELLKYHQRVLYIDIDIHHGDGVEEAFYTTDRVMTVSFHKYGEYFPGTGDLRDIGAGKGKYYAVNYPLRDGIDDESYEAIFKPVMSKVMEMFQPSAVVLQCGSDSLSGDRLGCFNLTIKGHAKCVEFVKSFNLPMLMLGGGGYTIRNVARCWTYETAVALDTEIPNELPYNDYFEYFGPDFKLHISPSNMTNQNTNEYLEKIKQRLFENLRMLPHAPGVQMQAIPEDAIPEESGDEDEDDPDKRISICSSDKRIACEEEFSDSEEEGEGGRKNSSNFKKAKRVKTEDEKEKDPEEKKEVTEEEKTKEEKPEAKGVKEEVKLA
The experiment can be described thus: Human HDAC enzyme inhibitor Fluor-de-Lys assay, HDAC1. Type of experiment: biochemical. As to conditions: recombinant human HDAC1, Fluor-de-Lys assay. The method, then:
(§1) Human HDAC Enzyme Inhibitor Fluor-De-Lys Assay
(§2) Recombinant human HDAC8 (BML-SE145-0100) and HDAC10 (BML-SE559-0050) enzymes, HDAC substrates BML-KI104 and BML-KI178, and HDAC developer solutions BML-KI105 and BML-KI176 were purchased from Enzo Life Sciences. […] HDAC inhibitor suberoylanilide hydroxamic acid (SAHA) was obtained from Indofine and trichostatin A (TSA) was obtained from Sigma-Aldrich.
(§3) Recombinant human HDAC1, HDAC2, and HDAC3/SMRT heterodimer were prepared by Merck Research Laboratories. […] The eluted protein was then passed over an anti-HDAC1 immunoaffinity column to remove any complexes containing HDAC1. […]
(§4) The histone deacetylase activities of HDAC1, HDAC2, HDAC3, HDAC6, and HDAC8 were measured in modified FLUOR DE LYS assays in 384-well format. In this assay, HDAC enzymes are initially incubated with an ε-acetyl (or -trifluoroacetyl)-L-lysine-containing substrate with a C-terminal amide having aminomethylcoumarin as the amine component. HDACs cleave the ε-acetyl group, rendering the resulting product susceptible to AMC cleavage by trypsin. The released AMC is then detected by its fluorescence.
(§5) The HDAC3/SMRT assay employed buffer B, consisting of 20 mM HEPES, pH 8.0, 1 mM MgCl2, 50 mM NaCl, 2.7 mM KCl, 0.05% BSA, 0.005% Tween 20, and 10 μM IP4. […] The HDAC8 assay employed buffer D, consisting of 20 mM HEPES, pH 8.0, 1 mM MgCl2, 100 mM NaCl, 20 mM KCl, 0.10% n-octyl-β-D-glucoside (Anatrace) and 0.05% BSA. All steps were performed at room temperature (23° C.). The assay was performed by pre-incubating serial dilutions of test compounds with the target HDAC prior to initiation with substrate. Each compound was titrated in a 10-point dose response, using a 1:3 fold dilution scheme, with 0.15 ul of solution added by ECH0555 to the plate, followed by the addition of 20 μl of the appropriate HDAC isoform diluted in appropriate assay buffer. […] Final conditions used for each assay were: 1. HDAC 1, 0.3 nM total enzyme, 20 μM substrate BML-KI104; 2. […] HDAC 3/SMRT, 0.3 nM total enzyme, 20 μM substrate BML-KI104; 4. […] The reactions were stopped and developed by addition of 30 ul of HDAC developer solution containing a saturating level of HDAC inhibitor as follows: 1.
T3 sequence (Q92769 whole entry): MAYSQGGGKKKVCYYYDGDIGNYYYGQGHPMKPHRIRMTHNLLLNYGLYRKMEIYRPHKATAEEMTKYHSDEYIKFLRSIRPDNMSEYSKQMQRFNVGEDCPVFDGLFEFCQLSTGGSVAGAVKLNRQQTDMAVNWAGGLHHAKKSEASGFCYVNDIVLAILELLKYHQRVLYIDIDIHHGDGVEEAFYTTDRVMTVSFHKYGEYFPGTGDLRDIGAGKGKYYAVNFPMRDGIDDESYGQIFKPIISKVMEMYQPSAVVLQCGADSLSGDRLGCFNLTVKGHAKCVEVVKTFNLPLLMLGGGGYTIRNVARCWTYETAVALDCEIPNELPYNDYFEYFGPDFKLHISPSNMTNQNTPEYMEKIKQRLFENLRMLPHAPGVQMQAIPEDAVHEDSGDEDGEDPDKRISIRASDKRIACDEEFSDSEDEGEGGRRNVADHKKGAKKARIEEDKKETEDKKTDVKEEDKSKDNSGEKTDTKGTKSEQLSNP
Broadly, the IC50 is the concentration needed to halve the response being measured. On to `CCC(=O)CCCCC[C@H](NC(=O)C1NC(=O)CC12CN(C)C2)c1nnc(-c2cc3ccccc3nc2OC)o1` (stereo partly drawn) [Compound 309], for which the IC50 was determined as 6.91 nM.

For `CCC(=O)CCCCC[C@H](NC(=O)C1NC(=O)CC12CN(C(=O)OC(C)(C)C)C2)c1nnc(-c2cc3ccccc3nc2OC)o1` (stereo partly drawn) [Compound 302], the IC50 stood at 49.4 nM.

Consider `CCC(=O)CCCCC[C@H](NC(=O)[C@H]1CC12CCN(C)CC2)c1ncc(-c2ccn3ncnc3c2)[nH]1` [Compound 267], for which the IC50 is 46.7 nM.

For a further experiment, the target named is T2, Recombinant human HDAC3/SMRT heterodimer (Homo sapiens, UniProt O15379).
T2 construct: FLAG (C); made in house
T2 sequence (O15379 whole entry): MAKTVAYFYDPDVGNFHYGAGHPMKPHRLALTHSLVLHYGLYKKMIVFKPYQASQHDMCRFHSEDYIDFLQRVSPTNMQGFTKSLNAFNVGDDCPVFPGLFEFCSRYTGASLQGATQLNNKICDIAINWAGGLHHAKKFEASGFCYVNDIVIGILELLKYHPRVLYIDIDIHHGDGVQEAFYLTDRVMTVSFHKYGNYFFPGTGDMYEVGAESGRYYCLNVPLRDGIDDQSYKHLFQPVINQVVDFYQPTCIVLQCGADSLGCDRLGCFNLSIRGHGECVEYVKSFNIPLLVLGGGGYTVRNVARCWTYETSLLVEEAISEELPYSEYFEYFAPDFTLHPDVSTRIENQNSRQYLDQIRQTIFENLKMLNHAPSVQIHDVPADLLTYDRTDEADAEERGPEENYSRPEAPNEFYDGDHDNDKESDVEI
T2 sequence (Q9Y618 1-899 partner limits assumed): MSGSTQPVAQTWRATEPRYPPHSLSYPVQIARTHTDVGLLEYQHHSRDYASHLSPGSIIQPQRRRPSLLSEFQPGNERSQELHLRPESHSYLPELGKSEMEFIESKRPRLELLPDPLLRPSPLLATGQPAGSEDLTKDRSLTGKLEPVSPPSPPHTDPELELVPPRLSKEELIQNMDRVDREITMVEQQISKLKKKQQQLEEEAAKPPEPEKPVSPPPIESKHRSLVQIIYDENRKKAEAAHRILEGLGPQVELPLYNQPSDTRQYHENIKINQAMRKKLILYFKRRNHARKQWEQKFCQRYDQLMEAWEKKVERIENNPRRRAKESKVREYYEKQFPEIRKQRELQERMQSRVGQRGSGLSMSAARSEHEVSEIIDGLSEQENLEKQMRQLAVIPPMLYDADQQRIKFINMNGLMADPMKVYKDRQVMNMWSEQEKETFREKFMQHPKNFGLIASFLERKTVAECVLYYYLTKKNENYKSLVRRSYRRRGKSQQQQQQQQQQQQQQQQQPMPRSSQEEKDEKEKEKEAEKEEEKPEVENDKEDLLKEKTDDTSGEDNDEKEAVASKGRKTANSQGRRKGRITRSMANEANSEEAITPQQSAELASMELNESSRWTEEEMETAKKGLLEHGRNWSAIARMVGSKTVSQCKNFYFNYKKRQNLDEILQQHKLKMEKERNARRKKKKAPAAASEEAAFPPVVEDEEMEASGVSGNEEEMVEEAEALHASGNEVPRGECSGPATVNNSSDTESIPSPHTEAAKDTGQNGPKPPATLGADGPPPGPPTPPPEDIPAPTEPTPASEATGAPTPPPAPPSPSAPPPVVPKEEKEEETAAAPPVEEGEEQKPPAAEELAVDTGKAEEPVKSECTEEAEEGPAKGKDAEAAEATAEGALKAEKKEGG
The experiment can be described thus: Human HDAC enzyme inhibitor Fluor-de-Lys assay, HDAC3/SMRT. Type of experiment: biochemical. As to conditions: recombinant human HDAC3/SMRT, Fluor-de-Lys assay.
On to `CCC(=O)CCCCC[C@H](NC(=O)C1NC(=O)CC12CN(C)C2)c1nnc(-c2cc3ccccc3nc2OC)o1` (stereo partly drawn) [Compound 309], for which the IC50 worked out at 7.19 nM.

As for `CCC(=O)CCCCC[C@H](NC(=O)C1NC(=O)CC12CN(C(=O)OC(C)(C)C)C2)c1nnc(-c2cc3ccccc3nc2OC)o1` (stereo partly drawn) [Compound 302], the IC50 stood at 37.6 nM.

The next experiment has as its target T3, Recombinant human HDAC2 (Homo sapiens, UniProt Q92769).
T3 construct: Full length human HDAC2-FLAG was expressed in baculovirus infected Sf9 cells; FLAG (C); made in house; host or cells: Sf9 (baculovirus)
Kind of experiment: Human HDAC enzyme inhibitor Fluor-de-Lys assay, HDAC2. Format: biochemical.
Conditions: not given
The method, then:
as §1, §2, §3, §4, §5
As to `CCC(=O)CCCCC[C@H](NC(=O)[C@H]1CC12CCN(CC)CC2)c1ncc(-c2cc3cccnc3cc2OC)o1` [Compound 169], the IC50 was found to be 2.2 nM.

The same experiment, now with this note: recombinant human HDAC2, Fluor-de-Lys assay.
`CCC(=O)CCCCC[C@H](NC(=O)C1NC(=O)CC12CN(C)C2)c1nnc(-c2cc3ccccc3nc2OC)o1` (stereo partly drawn) [Compound 309]: the half-maximal inhibitory concentration (IC50) worked out at 19.3 nM.

As for `CCC(=O)CCCCC[C@H](NC(=O)C1NC(=O)CC12CN(C(=O)OC(C)(C)C)C2)c1nnc(-c2cc3ccccc3nc2OC)o1` (stereo partly drawn) [Compound 302], the IC50 was 121 nM.

`CCC(=O)CCCCC[C@H](NC(=O)[C@H]1CC12CCN(C)CC2)c1ncc(-c2ccn3ncnc3c2)[nH]1` [Compound 267]: the IC50 was 170 nM.

The test system of the next experiment is KARN cells (Jurkat 2C4). The experiment can be described thus: cells. Type of experiment: cell-based. As to conditions: Homo sapiens, Jurkat, read-out: Karn EC50 (nM) 0.1% NHS, 0.1% normal human serum. Summed up: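 Luminescence (Steady-Glo, 10 min, room temperature) measured next day in KARN Jurkat 2C4 cells given compounds at up to 40 μM final with 0.4% DMSO. Percent activation normalised to DMSO (0%) and 2 μM SAHA (100%), fitted by 4-parameter curve.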
In general, EC50 refers to the concentration needed to bring the measured effect to its halfway point. As for `CCC(=O)CCCCC[C@H](NC(=O)[C@H]1CC12CCN(CC)CC2)c1ncc(-c2cc3cccnc3cc2OC)o1` [Compound 169], the EC50 is 91 nM.

The same experiment, now with this note: Homo sapiens, Jurkat, read-out: Karn EC50 (nM) 0.1% NHS, 0.1% normal human serum; luciferase induction, 100% = 2 μM SAHA.
In the case of `CCC(=O)CCCCC[C@H](NC(=O)C1NC(=O)CC12CN(C)C2)c1nnc(-c2cc3ccccc3nc2OC)o1` (stereo partly drawn) [Compound 309], the EC50 was found to be 1350 nM.

On to `CCC(=O)CCCCC[C@H](NC(=O)C1NC(=O)CC12CN(C(=O)OC(C)(C)C)C2)c1nnc(-c2cc3ccccc3nc2OC)o1` (stereo partly drawn) [Compound 302], for which the EC50 turned out to be 4460 nM.

The experiment is the same for the next values; noted with them: Homo sapiens, Jurkat, read-out: Karn EC50 (nM) 5% NHS, 5% normal human serum.
For `CCC(=O)CCCCC[C@H](NC(=O)[C@H]1CC12CCN(CC)CC2)c1ncc(-c2cc3cccnc3cc2OC)o1` [Compound 169], the EC50 turned out to be 78 nM.

The experiment is the same for the next values; noted with them: Homo sapiens, Jurkat, read-out: Karn EC50 (nM) 5% NHS, 5% normal human serum; luciferase induction, 100% = 2 μM SAHA.
Take `CCC(=O)CCCCC[C@H](NC(=O)C1NC(=O)CC12CN(C)C2)c1nnc(-c2cc3ccccc3nc2OC)o1` (stereo partly drawn) [Compound 309]: the EC50 was determined as 1920 nM.

Turning to `CCC(=O)CCCCC[C@H](NC(=O)C1NC(=O)CC12CN(C(=O)OC(C)(C)C)C2)c1nnc(-c2cc3ccccc3nc2OC)o1` (stereo partly drawn) [Compound 302], the EC50 came out at 7430 nM.

The target in the next experiment is T4, HDAC6 (Homo sapiens, UniProt Q9UBN7).
T4 sequence (Q9UBN7 1-1215): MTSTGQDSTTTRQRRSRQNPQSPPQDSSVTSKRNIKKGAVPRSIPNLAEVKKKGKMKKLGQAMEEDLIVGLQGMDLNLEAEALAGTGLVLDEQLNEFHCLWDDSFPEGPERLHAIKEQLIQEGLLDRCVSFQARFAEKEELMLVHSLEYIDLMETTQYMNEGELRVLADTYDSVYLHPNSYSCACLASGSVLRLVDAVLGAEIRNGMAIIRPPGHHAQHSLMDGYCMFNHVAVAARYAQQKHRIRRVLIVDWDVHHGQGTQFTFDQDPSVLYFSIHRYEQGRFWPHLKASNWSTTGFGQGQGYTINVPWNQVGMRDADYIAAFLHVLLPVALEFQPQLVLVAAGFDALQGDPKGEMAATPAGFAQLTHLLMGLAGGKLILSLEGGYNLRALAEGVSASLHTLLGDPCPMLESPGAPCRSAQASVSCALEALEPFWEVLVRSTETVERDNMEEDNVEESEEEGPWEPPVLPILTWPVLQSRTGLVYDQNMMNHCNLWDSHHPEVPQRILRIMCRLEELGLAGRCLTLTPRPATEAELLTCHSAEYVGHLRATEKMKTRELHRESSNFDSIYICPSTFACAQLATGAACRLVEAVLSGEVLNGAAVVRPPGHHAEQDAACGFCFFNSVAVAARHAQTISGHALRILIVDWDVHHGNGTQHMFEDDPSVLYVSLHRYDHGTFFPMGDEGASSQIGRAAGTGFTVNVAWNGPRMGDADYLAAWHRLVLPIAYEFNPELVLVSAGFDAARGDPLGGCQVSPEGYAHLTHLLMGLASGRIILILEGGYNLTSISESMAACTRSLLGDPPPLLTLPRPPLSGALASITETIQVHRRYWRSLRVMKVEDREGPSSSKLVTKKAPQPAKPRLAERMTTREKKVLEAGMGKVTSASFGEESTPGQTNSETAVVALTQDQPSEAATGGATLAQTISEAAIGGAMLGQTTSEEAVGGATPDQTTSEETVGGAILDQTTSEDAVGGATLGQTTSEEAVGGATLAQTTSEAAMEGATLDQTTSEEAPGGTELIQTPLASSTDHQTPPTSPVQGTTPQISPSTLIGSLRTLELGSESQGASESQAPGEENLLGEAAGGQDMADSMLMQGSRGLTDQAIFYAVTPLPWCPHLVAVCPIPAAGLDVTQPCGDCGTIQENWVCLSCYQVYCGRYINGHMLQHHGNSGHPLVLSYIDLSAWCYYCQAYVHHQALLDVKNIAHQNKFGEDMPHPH
The experiment can be described thus: Human HDAC enzyme inhibitor Fluor-de-Lys assay, HDAC6. Format: biochemical.
Conditions: not given
In turn, `CCC(=O)CCCCC[C@H](NC(=O)[C@H]1CC12CCN(CC)CC2)c1ncc(-c2cc3cccnc3cc2OC)o1` [Compound 169] returned an IC50 of 83 nM.

Staying with this experiment, now noted: HDAC6, Fluor-de-Lys assay.
The compound `CCC(=O)CCCCC[C@H](NC(=O)[C@H]1CC12CCN(C)CC2)c1ncc(-c2ccn3ncnc3c2)[nH]1` [Compound 267] came in with an IC50 of 6370 nM.

Another experiment has as its target T5, Recombinant human HDAC8 (Homo sapiens, UniProt Q9BY41).
T5 construct: purchased Enzo Life Sciences BML-SE145-0100
T5 sequence (Q9BY41 1-377): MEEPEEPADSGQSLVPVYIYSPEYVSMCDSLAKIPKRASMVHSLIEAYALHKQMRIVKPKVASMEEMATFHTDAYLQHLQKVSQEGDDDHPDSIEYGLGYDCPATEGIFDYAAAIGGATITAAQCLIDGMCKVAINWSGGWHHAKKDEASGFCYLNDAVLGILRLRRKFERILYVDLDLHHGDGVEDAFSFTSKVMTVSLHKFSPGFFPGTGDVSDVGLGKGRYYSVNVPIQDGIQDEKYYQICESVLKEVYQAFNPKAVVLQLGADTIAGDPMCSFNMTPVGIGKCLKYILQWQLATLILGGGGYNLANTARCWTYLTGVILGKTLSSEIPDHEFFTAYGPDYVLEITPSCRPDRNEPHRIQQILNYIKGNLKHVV
Kind of experiment: Human HDAC enzyme inhibitor Fluor-de-Lys assay, HDAC8. Type of experiment: biochemical.
Conditions: not given
Consider `CCC(=O)CCCCC[C@H](NC(=O)[C@H]1CC12CCN(CC)CC2)c1ncc(-c2cc3cccnc3cc2OC)o1` [Compound 169], for which the IC50 amounted to 7580 nM.

Still in this experiment, the particulars now being: recombinant human HDAC8, Fluor-de-Lys assay.
In the case of `CCC(=O)CCCCC[C@H](NC(=O)C1NC(=O)CC12CN(C)C2)c1nnc(-c2cc3ccccc3nc2OC)o1` (stereo partly drawn) [Compound 309], the IC50 is 24000 nM.

For `CCC(=O)CCCCC[C@H](NC(=O)C1NC(=O)CC12CN(C(=O)OC(C)(C)C)C2)c1nnc(-c2cc3ccccc3nc2OC)o1` (stereo partly drawn) [Compound 302], the IC50 was more than 45000 nM.

On to `CCC(=O)CCCCC[C@H](NC(=O)[C@H]1CC12CCN(C)CC2)c1ncc(-c2ccn3ncnc3c2)[nH]1` [Compound 267], for which the IC50 is 11600 nM.

(Values after US12590099B2, “Inhibitors of histone deacetylase useful for the treatment or prevention of HIV infection” (Merck Sharp & Dohme LLC, priority 2018, dated 2026).)
